Data published in paper PMC11225074 (Clinical and Translational Medicine, 2024).

Key:
His‐YBX1 = assay: Microscale thermophoresis (MST), His-YBX1 wild type; format: binding; conditions: PBS (pH 7.4) with 0.05% Tween‐20, peptide 10 nM to 500 µM, NT-647-NHS labelled protein; at least three experiments
Protocol: The recombinant plasmids pGEX and pET‐28a expressing GST‐YBX1 and His‐YBX1, respectively, were transformed into E. coli BL21 to generate two recombinant strains pGEX‐GST‐YBX1 and pET‐28a‐His‐YBX1. These strains were inoculated into LB medium and cultured with ampicillin or kanamycin, and isopropylthio‐β‐D‐galactoside at 16°C overnight. Post‐culturing, the cells were collected and sonicated in PBS.
Proteins with labels were dissolved in a solution of PBS (pH 7.4) with 0.05% Tween‐20. […] After incubation, the mixture was moved to silica capillaries and thermophoresis was assessed using a NanoTemper Monolith NT.115 device from NanoTemper Technologies GmbH. Dissociation constant (Kd) values were determined using the law of mass action formula in NanoTemper Analysis 1.5.41 software. All microscale thermophoresis (MST) experiments were conducted at least three times.

[1] = tested on: Histone H3K4me1 and H3K4me3 peptides; assay: Dot blot of antibody specificity; format: binding; conditions: 1:1000, 16 h at 4°C, nitrocellulose, chemiluminescence
Text: Next, the membranes were washed with 1×TBST in order to eliminate any antibodies that were not bound. Following washing, the membranes were exposed to secondary antibodies that were linked to HRP.

Substance	Binding of His-YBX1 to peptide (MST) (His‐YBX1)	Antibody specificity towards the corresponding modification [1]
ART‐Kme0/1/3‐QTARKSTGGKAPRKQL [H3, chemically synthesized unmethylated histone H3 peptide of 20 amino acids (GenScript)]	no discernible binding affinity	
H3K4me1 antibody: anti‐H3K4me1 (1:1000; Abcam; ab176877)		high specificity
H3K4me3 antibody: anti‐H3K4me3 (1:1000; Abcam; ab213224)		high specificity
